These results are taken from patent US12023319B2, “Carboxylic acid aromatic amides” (priority 2016, dated 2024).

The test deals with T1, human Bradykinin B1 receptor (Homo sapiens, UniProt P46663).
T1 construct: host or cells: CHO-K1
T1 sequence (P46663 1-353): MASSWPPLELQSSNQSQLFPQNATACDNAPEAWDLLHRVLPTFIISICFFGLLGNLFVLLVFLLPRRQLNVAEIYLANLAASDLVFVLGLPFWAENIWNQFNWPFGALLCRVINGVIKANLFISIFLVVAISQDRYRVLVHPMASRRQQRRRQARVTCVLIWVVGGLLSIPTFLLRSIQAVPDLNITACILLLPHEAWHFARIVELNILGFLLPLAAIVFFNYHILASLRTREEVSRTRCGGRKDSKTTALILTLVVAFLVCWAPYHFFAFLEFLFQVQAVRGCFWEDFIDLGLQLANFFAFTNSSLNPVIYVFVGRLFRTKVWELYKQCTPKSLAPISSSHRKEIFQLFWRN
Briefly: Calcium flux assay (FLIPR), CHO-K1 cells expressing human Bradykinin B1 receptor, absence of 0.1% BSA (hB1 free IC50). It counts as cell-based. The conditions noted are these: absence of 0.1% BSA in assay buffer. The essentials: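 Peak FLIPR fluorescence (538 nm) after B1 agonist peptide addition gave IC50s, scaled between DMSO and full block by 20 µM Lys-(Des-Arg-Leu)-Bradykinin. Compounds were preincubated 30 min at 28° C with calcium-dye-loaded CHO-K1 cells expressing human B1, at 8 concentrations in triplicate, 1% DMSO final.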

By IC50 is commonly meant the concentration needed to halve the response being measured. Turning to `O=C(O)c1cc(NC(=O)C2(c3ccc(C(F)(F)F)cc3F)CC2)ccc1-c1ccc(C(F)(F)F)nc1` [Example 6, 5-[({1-[2-Fluoro-4-(trifluoromethyl)phenyl]cyclopropyl}carbonyl)amino]-2-[6-(trifluoromethyl)pyridin-3-yl]benzoic acid], the IC50 came to 210 nM.

In the case of `O=C(O)c1cc(NC(=O)C2(c3ccc(C(F)(F)F)cc3F)CC2)cc(F)c1-c1ccc(C(F)(F)F)nc1` [Example 29, 3-Fluoro-5-[({1-[2-fluoro-4-(trifluoromethyl)phenyl]cyclopropyl}carbonyl)amino]-2-[6-(trifluoromethyl)pyridin-3-yl]benzoic acid], the IC50 came to 13 nM.

Turning to `O=C(O)c1cc(NC(=O)C2(c3ccc(OC(F)(F)F)cc3F)CC2)ccc1-c1ccc(C(F)F)nc1` [Example 5, 2-[6-(Difluoromethyl)pyridin-3-yl]-5-[({1-[2-fluoro-4-(trifluoromethoxy)phenyl]cyclopropyl}carbonyl)amino]benzoic acid], the concentration for half-maximal inhibition (IC50) worked out at 86 nM.

On to `O=C(O)c1cc(NC(=O)C2(c3ccc(C(F)(F)F)cc3F)CC2)ccc1-c1cnn(C2CCC2)c1` [Example 3, 2-(1-Cyclobutyl-1H-pyrazol-4-yl)-5-[({1-[2-fluoro-4-(trifluoromethyl)phenyl]cyclopropyl}carbonyl)amino]benzoic acid], for which the IC50 came out at 18 nM.

For the compound `CCC(F)(F)c1ccc(-c2ccc(NC(=O)C3(c4ccc(C(F)(F)F)cc4F)CC3)cc2C(=O)O)cn1` [Example 2, 2-[6-(1,1-Difluoropropyl)pyridin-3-yl]-5-[({1-[2-fluoro-4-(trifluoromethyl)-phenyl]cyclopropyl}carbonyl)amino]benzoic acid], the IC50 amounted to 24 nM.

`O=C(O)c1cc(NC(=O)C2(c3ccc(C(F)(F)F)cc3F)CC2)cc(F)c1-c1cnn(C2CCC2)c1` [Example 42, 2-(1-Cyclobutyl-1H-pyrazol-4-yl)-3-fluoro-5-[({1-[2-fluoro-4-(trifluoromethyl)phenyl]cyclopropyl}carbonyl)amino]benzoic acid]: the IC50 turned out to be 6.3 nM.

Regarding `O=C(O)c1cc(NC(=O)C2(c3ccc(C(F)(F)F)cc3F)CC2)ccc1-c1cc2ccccc2s1` [Example 1, 2-(1-Benzothiophen-2-yl)-5-[({1-[2-fluoro-4-(trifluoromethyl)phenyl]cyclopropyl}carbonyl)amino]benzoic acid], the IC50 was found to be 6.5 nM.
